Assay type in all cases: in vivo
Data set [1] deals with Boophilus microplus. As to the kind of experiment: Boophilus microplus (dip). The note with it: for mortality at 100 ppm: Rhipicephalus microplus, 168 h, read-out: activity (mortality). The protocol:
Solvent: Dimethylsulfoxid
To produce a suitable preparation of active compound, 10 mg of active compound are dissolved in 0.5 ml solvent, and the concentrate is diluted with water to the desired concentration. Eight to ten adult engorged female Boophilus microplus ticks are placed in perforated plastic beakers and immersed in aqueous compound solution for one minute. Ticks are transferred to a filter paper in a plastic tray. Egg deposition of fertile eggs is monitored after. After 7 days mortality in % is determined. 100% means that all the ticks have been killed; 0% means that none of the ticks have been killed.

In data set [2] the test system is Aulacophora femoralis. As to the kind of experiment: Test against cucurbit leaf beetle (Aulacophora femoralis), leaf dip. The following applies: active compound concentration of 500 ppm, second instar larvae on cucumber leaves, after 7 days; for pest or weed control at 500 ppm: Aulacophora, foliar, 168 h, read-out: insecticidal activity. The essentials: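 Cucumber leaves dipped in compound solution (DMF/polyoxyethylene alkyl phenyl ether formulation diluted in water), air-dried and given five second-instar larvae on sterilized soil at 25 °C. Dead larvae counted after 7 days and expressed as % insecticidal activity.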

The test system of data set [3] is Spodoptera litura. In words: Test against tobacco cutworm (Spodoptera litura) larvae, leaf dip. The following applies: active compound concentration of 100 ppm, third instar larvae on sweet potato leaves, after 7 days; for pest or weed control at 100 ppm: foliar, 168 h, read-out: insecticidal activity.
In data set [4] the test system is Tetranychus urticae. As to the kind of experiment: Test against two-spotted spider mite (Tetranychus urticae), spray. The note with it: active compound concentration of 500 ppm, adult mites on kidney bean, after 7 days; for pest or weed control at 500 ppm: Tetranychus urticae, 168 h, read-out: acaricidal activity.
Data set [5] relates to Boophilus microplus. As to the kind of experiment: Boophilus microplus-test (injection). The following applies: Rhipicephalus microplus, 168 h, read-out: activity (mortality in %; 100% means that all eggs are infertile). As to the method: (§1) Solvent: dimethyl sulfoxide
To produce a suitable preparation of active compound, 10 mg of active compound are dissolved in 0.5 ml solvent, and the concentrate is diluted with solvent to the desired concentration. Five adult engorged female ticks (Boophilus microplus) are injected with 1 μl compound solution into the abdomen. Ticks are transferred into replica plates and incubated in a climate chamber for a period of time. Egg deposition of fertile eggs is monitored.
After 7 days mortality in % is determined. 100% means that all eggs are infertile; 0% means that all eggs are fertile.

The subject of data set [6] is Ctenocephalides felis. In words: Ctenocephalides felis-test (CTECFE). The following applies: Ctenocephalides felis, in Bos taurus, 48 h, read-out: activity (mortality), application rate of 100 ppm in cattle blood; adult unfed fleas; after 2 days. The protocol: as §1
To produce a suitable preparation of active compound, 10 mg of active compound are dissolved in 0.5 ml solvent, and the concentrate is diluted with cattle blood to the desired concentration. Approximately 20 adult unfed (Ctenocepahlides felis) are placed in flea chambers. The blood chamber, sealed with parafilm on the bottom, are filled with cattle blood supplied with compound solution and placed on top of the flea chamber, so that the fleas are able to suck the blood. The blood chamber is heated to 37° C. whereas the flea chamber is kept at room temperature. After 2 days mortality in % is determined. 100% means that all the fleas have been killed; 0% means that none of the fleas have been killed.

Data set [7] relates to Musca domestica. As to the kind of experiment: Musca domestica-test. The following applies: Musca domestica, 48 h, read-out: activity (mortality). The protocol: as §1
To produce a suitable preparation of active compound, 10 mg of active compound are dissolved in 0.5 ml solvent, and the concentrate is diluted with water to the desired concentration. Prior to the assay, a piece of kitchen sponge is soaked with a mixture of sugar and compound solution and placed into a container. 10 adults (Musca domestica) are placed into the container and closed with a perforated lid. After 2 days mortality in % is determined. 100% means that all the flies have been killed; 0% means that none of the flies have been killed.

For data set [8], the system named is Lucilia cuprina. In words: Lucilia cuprina (48 h) larval test. The following applies: Lucilia cuprina, 48 h, read-out: activity (larval mortality). The protocol:
Species: Lucilia cuprina 1st instar larvae (age 24 hrs)
as §1
10 mg active compound are dissolve in 0.5 ml dimethyl sulfoxide. Serial dilutions are made to obtain the desired rates. Approximately 20 Lucilia cuprina 1st instar larvae are transferred into a test tube containing 1 cm^3 of minced horse meat and 0.5 ml aqueous dilution of test compound. After 48 hrs percentage of larval mortality are recorded. 100% efficacy all larvae are killed, % efficacy normally developed larvae after 48 hrs.

The structures appear in SMILES notation.

Turning to `N#Cc1ccc2cc(C(=O)Nc3c(I)cc(C(F)(C(F)(F)F)C(F)(F)F)cc3I)ccc2n1` [2-69], the “activity (mortality)” value in data set [1] (application rate of 100 ppm, dip of adult engorged female ticks for one minute, after 7 days) was determined as 100%. Besides, the insecticidal activity in data set [2] and in data set [3] was 100% each time. In data set [4], this compound returned an acaricidal activity of 100%.
As to `N#Cc1ccc2cc(C(=O)Nc3c(Br)cc(C(F)(C(F)(F)F)C(F)(F)F)cc3OC(F)F)ccc2n1` [Compound No. 2-154, N-[2-bromo-6-(difluoromethoxy)-4-(1,1,1,2,3,3,3-heptafluoropropan-2-yl)phenyl]-2-cyanoquinoline-6-carboxamide], in data set [1], the mortality (usually the share of the test organisms that died) at 100 ppm came to 90%. Further, the pest or weed control at 500 ppm in data set [2] and in data set [4] was 100% each time. In data set [3], the pest or weed control at 100 ppm turned out to be 100%.
For the compound `N#Cc1ccc2cc(C(=O)Nc3c(Br)cc(C(F)(C(F)(F)F)C(F)(F)C(F)(F)F)cc3OC(F)F)ccc2n1` (centres unmarked) [Compound No. 2-173, N-[2-bromo-6-(difluoromethoxy)-4-(1,1,1,2,3,3,4,4,4-nonafluorobutan-2-yl)phenyl]-2-cyanoquinoline-6-carboxamide], the mortality at 100 ppm in data set [1] is 100%. The pest or weed control at 500 ppm in data set [2] and in data set [4] was 100% each time. For the same compound, the pest or weed control at 100 ppm in data set [3] amounted to 100%.
As to `N#Cc1ccc2cc(C(=O)Nc3c(I)cc(C(F)(C(F)(F)F)C(F)(F)C(F)(F)F)cc3OC(F)F)ccc2n1` (centres unmarked) [Compound No. 2-176, 2-cyano-N-[2-(difluoromethoxy)-6-iodo-4-(1,1,1,2,3,3,4,4,4-nonafluorobutan-2-yl)phenyl]quinoline-6-carboxamide], the mortality at 0.02 mg in data set [5] came to 100%. Besides, the mortality at 100 ppm in data set [6] amounted to 90%; in data set [1], 100%; in data set [7], 100%; in data set [8] it was 100%. Besides, the pest or weed control at 500 ppm in data set [2] and in data set [4] was 100% throughout. The pest or weed control at 100 ppm in data set [3] worked out at 100%.
Turning to `O=C(Nc1c(Br)cc(C(F)(C(F)(F)F)C(F)(F)Br)cc1OC(F)F)c1ccc2ncccc2c1` (centres unmarked) [Compound No. 2-201, N-[2-bromo-4-(1-bromo-1,1,2,3,3,3-hexafluoropropan-2-yl)-6-(difluoromethoxy)phenyl]quinoline-6-carboxamide], the mortality at 0.02 mg in data set [5] came to 100%. The mortality at 100 ppm in data set [6], in data set [7] and in data set [8] was 100% throughout. In addition, the pest or weed control at 500 ppm in data set [2] and in data set [4] was 100% throughout. In data set [3], the pest or weed control at 100 ppm was found to be 100%.
Consider `N#Cc1ccc2cc(C(=O)Nc3c(Br)cc(C(F)(C(F)(F)F)C(F)(F)Br)cc3OC(F)F)ccc2n1` (centres unmarked) [Compound No. 2-203, N-[2-bromo-4-(1-bromo-1,1,2,3,3,3-hexafluoropropan-2-yl)-6-(difluoromethoxy)phenyl]-2-cyanoquinoline-6-carboxamide], for which the mortality at 0.02 mg in data set [5] is 100%. Moreover, the mortality at 100 ppm in data set [6], in data set [1], in data set [7] and in data set [8] was 100% throughout. Further, the pest or weed control at 500 ppm in data set [2] and in data set [4] was 100% throughout. For the same compound, in data set [3], the pest or weed control at 100 ppm came out at 100%.

The values above are taken from patent US8822691B2, “Pesticidal carboxamides” (Bayer CropScience AG, priority 2009, dated 2014).
